{"source": "ChEMBL document CHEMBL5252621", "about": "“Effective Combination Therapies for the Treatment of HER2 Cancer” (2023)", "key": {"[1]": {"system": "HCC1954", "experiment": "Antitumor activity against human HCC1954 cells xenografted in NCR nude mouse model assessed as tumor growth inhibition at 25 mg/kg via oral gavage administered for 28 days by caliper method", "format": "functional", "details": "HCC1954, 672 h, time 28 day, read-out: TGI"}, "[2]": {"system": "HCC1954", "experiment": "Antitumor activity against human HCC1954 cells xenografted in NCR nude mouse model assessed as tumor growth inhibition at 25 mg/kg via oral gavage administered for 28 days in presence of trastuzumab/pertuzumab by caliper method", "format": "functional", "details": "HCC1954, 672 h, time 28 day, read-out: TGI"}}}
{"smiles": "C[C@H](Nc1ccc2c(c1)OCCn1cc(N3C(=O)OC[C@H]3C(F)F)nc1-2)C(N)=O", "note": "[INAVOLISIB]", "values": [{"measurement": "inhibition in vivo at 25 mg/kg", "setting": "[1]", "value": 122, "unit": "%"}, {"measurement": "inhibition in vivo at 25 mg/kg", "setting": "[2]", "value": 148, "unit": "%"}]}
